Tests used:
[1] = system: osteoporosis (OVX) induced mice; assay: micro-CT analysis of femur bone in ovariectomy (OVX) osteoporosis mouse model after 4-HR ointment application; format: in vivo; settings: ointment containing 2% 4-HR applied to dorsal skin for 4 weeks, compared to osteoporosis (OVX) induced mice
Description: After separating the mouse femur and removing muscle, fixation was performed using 4% PFA at 4° C. for a day. The next day, washing was followed three times with PBS solution to be stored in PBS. The femur stored thereby was analyzed with a Skysan 1272 (Bruker, Massachusetts, USA) model by scanning, in units of 6 μm, the section from 1.6 mm to 2.3 mm below the growth plate. Using micro-CT, during the measurement of trabecular bone volume/tissue volume (BV/TV), trabecular thickness (Tb.Th), trabecular number (Tb.N), trabecular separation (Tb.Sp), and trabecular bone mineral density (BMD), bone volume/tissue volume (BV/TV) and bone mineral density (BMD) of cortical bone was measured as well.
To evaluate the effect of 4-hexylresorcinol (4-HR) on bone remodeling, the ointment containing 2% 4-HR was applied to the mouse dorsal skin for 4 weeks after induction of osteoporosis via ovariectomy (OVX) in a model with osteoporosis, and the change in bone volume was analyzed by micro-CT.

osteoclasts [2] = assay: osteoclastic activity by Pit assay on bone slices; format: cell-based, mouse; settings: differentiated osteoclasts on bone slices, treated with 4-HR for 2 days
Description: Monocytes were sterilized and inoculated on bone slices placed on a 96-well plate, followed by culture for 3 days in the presence of RANKL (30 ng/ml) and M-CSF (30 ng/ml). After 3 days, the differentiated osteoclasts were treated with 4-hexylresorcinol (4-HR), and a culture was performed for 2 days. After 2 days of culture, osteoclasts were removed and bone slices were reacted with horseradish peroxidase-wheat germ agglutinin (Sigma-Aldrich) and then stained with 3,3′-diaminobenzidine (Sigma-Aldrich). Stained cells were analyzed according to the manufacturer's method using a Java-based image analysis program (ImageJ).
To evaluate the effect of 4-hexylresorcinol (4-HR) on the differentiation and activity of osteoclasts, 4-hexylresorcinol (4-HR) was treated on osteoclasts, and cell differentiation and osteoclastic activity were checked by TRAP staining and PIT assay analysis.

[3] = system: animal model with osteoporosis; assay: blood biochemical analysis of bone resorption and bone formation markers (CTX, ALP, RANKL) in animal model with osteoporosis; format: in vivo, mouse; settings: 4-HR periodically applied to the skin
Description: To evaluate the effect of 4-hexylresorcinol (4-HR) on bone resorption and promoting bone formation, the levels of CTX, ALP, and RANKL in an animal model with osteoporosis were measured via blood biochemical analysis. CTX is used as a marker for evaluating the degree of bone resorption (bone destruction) in the blood, ALP is a marker that indicates the degree of bone formation secreted by osteoblasts, and RANKL is used as a marker that is secreted from osteoblasts and promotes differentiation of osteoclasts.

osteoclasts [4] = assay: osteoclast differentiation by TRAP staining; format: cell-based; design: dose or concentration left out as unconfirmed; settings: mouse bone marrow cells with M-CSF and RANKL, 4 days, 4-HR
Description: Mouse bone marrow monocyte (BMM) cells were isolated from the femur and tibia in 8-week-old mice. Muscle was removed after the separation of the femur and tibia from the mice euthanized by cervical dislocation, both ends were cut out, and α-MEM was filtered with a syringe to separate bone marrow cells. After centrifuging the isolated bone marrow cells, red blood cell lysis solution was added to hemolyze red blood cells, and then culture was performed for a day in the α-MEM containing 10% (v/v) FBS, penicillin (100 units/ml), and streptomycin (100 units/ml) using the constant temperature and humidity incubator in the presence of 5% (v/v) CO2 at 37° C. Only suspending cells not adhering to the culture dish were collected, treated with 20 ng/ml of M-CSF, and cultured for 3 days to obtain bone marrow-derived monocyte/macrophage. In an attempt to differentiate macrophages into osteoclasts, 20 ng/ml of M-CSF and 30 ng/ml of RANKL were treated, followed by culture for 4 days. Media were replaced every 2 days while differentiation was induced.
Medullary mononuclear cells isolated from the femur and tibia of mice were treated with 20 ng/ml of M-CSF and reacted for a day. […]

osteoblasts (MC3T3-E1) = assay: osteoblast differentiation by alkaline phosphatase (ALP) and Alizarin red staining; format: cell-based, mouse; settings: MC3T3-E1 cells, 4-HR 10^−9 M to 10^−6 M (ALP, 7 days) or 10^−9 M to 10^−4 M (Alizarin red, 14-21 days)
Description: MC3T3-E1 (mouse calvaria osteoblast cell line) cells were cultured in α-MEM containing 10% (v/v) FBS, penicillin (100 units/ml), and streptomycin (100 units/ml) using a constant temperature and humidity incubator in the presence of 5% (v/v) CO2 at 37° C. When the culture dish was filled with osteoblasts with 100% confluency, 50 μg/ml of ascorbic acid and 10 mM of β-glycerophosphate were treated to induce cell differentiation. During cell differentiation, the differentiation medium was replaced every 3 days.
MC3T3-E1 and bone marrow stem cells were inoculated into a 48-well multi-plate at 5×10^4 cells/well, and culture was performed for 7 days with treatment of 4-hexylresorcinol (4-HR) at a concentration of 10^−9 M to 10^−6 M while a differentiation induction medium was replaced every 2 days. After the culture, cells were washed with PBS three times, and a fixative containing 5 ml of citrate acid, 13 ml of acetone, and 1.6 ml of a formaldehyde solution was treated for 45 seconds. Then, the cells were washed twice with PBS, treated with an alkaline-dye mixture, and reacted at room temperature in the darkness for 30 minutes. After removing the solution, cells were washed several times with PBS and observed under a microscope. […]

Compound: CCCCCCc1ccc(O)cc1O [4-hexylresorcinol (4-HR), 4-hexylbenzene-1,3-diol]
- bone density [1]: increased
- bone volume [1]: increased
- trabecular number [1]: increased
- trabecular thickness [1]: increased
- osteoclastic activity (PIT assay) (osteoclasts [2]): inhibited
- level of ALP (bone formation marker in blood) [3]: increased
- level of CTX (bone resorption marker in blood) [3]: decreased
- differentiation of osteoclasts (TRAP staining) (osteoclasts [4]): inhibited
- differentiation of osteoblasts (ALP and Alizarin red staining) (osteoblasts (MC3T3-E1)): differentiation was promoted
